In assay [1] the target is T1, MMP-2 (Homo sapiens, UniProt P08253).
T1 sequence (P08253 110-660): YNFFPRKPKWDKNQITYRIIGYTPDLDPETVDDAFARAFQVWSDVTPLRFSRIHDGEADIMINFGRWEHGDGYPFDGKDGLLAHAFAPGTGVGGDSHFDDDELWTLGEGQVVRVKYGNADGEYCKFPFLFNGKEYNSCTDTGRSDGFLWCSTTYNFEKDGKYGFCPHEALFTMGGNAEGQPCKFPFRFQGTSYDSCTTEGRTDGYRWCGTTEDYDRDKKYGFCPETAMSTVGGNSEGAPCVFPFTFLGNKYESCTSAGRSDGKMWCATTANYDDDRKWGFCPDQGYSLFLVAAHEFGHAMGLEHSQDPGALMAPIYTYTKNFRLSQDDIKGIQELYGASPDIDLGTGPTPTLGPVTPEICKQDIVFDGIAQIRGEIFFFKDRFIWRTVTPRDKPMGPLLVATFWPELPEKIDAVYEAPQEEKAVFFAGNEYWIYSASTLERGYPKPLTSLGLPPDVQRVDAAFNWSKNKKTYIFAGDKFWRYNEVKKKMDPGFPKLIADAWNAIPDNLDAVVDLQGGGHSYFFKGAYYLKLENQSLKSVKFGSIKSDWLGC
Put plainly: Determination of MMP inhibitory potency, MMP-2. To be noted: read-out: IC50 (μM) on MMP-2. More on the design: purchased R&D Systems, Minneapolis. Type of assay: biochemical. The procedure:
(§1) Recombinant enzymes, human MMP-1, MMP-2, MMP-3, MMP-8, MMP-9, MMP-12, MMP-13 and TACE (R&D Systems, Minneapolis) were incubated at four different concentrations with the relevant colorimetric or fluorescent peptide substrates (R&D Systems, Minneapolis) for 3 h. The tested compounds were added at four to six different concentrations and the inhibitory potencies expressed in a colorimetric change, was measured by an ELISA or fluorimeter.

A further assay has as its target T2, human MMP-3 (Homo sapiens, UniProt P08254).
T2 construct: purchased R&D Systems, Minneapolis
Put plainly: Determination of MMP inhibitory potency, MMP-3. It counts as biochemical. The protocol:
as §1

Another assay deals with MMP and/or ADAM enzyme. In words: Duration of inhibitory effect on the enzymes inhibited. Type of assay: biochemical, human. The procedure: Previously, it has been established that cis-2-aminocyclohexycarbamoyl phosphonic acid (cis-ACCP), listed for the purpose of comparison in Tables 2 and 3 as “control”, was an effective nontoxic, in vivo active antimetastatic compound. […] In the study leading to the subject invention, it was determined that the inhibitory effect could be, and in fact was prolonged by substituting carbamoylphosphonic functionality with aromatic ring functionality as in the compounds of the invention. […]
as §1

The next assay has as its target T3, human MMP-13 (Homo sapiens, UniProt P45452).
T3 construct: purchased R&D Systems, Minneapolis
In words: Determination of MMP inhibitory potency, MMP-13. To be noted: read-out: IC50 (μM) on MMP-13. Type of assay: biochemical. The procedure: as §1

The next assay concerns B16F10 tumor cells. In words: Murine melanoma model of experimental metastasis. Type of assay: in vivo, C57B1 mice. To be noted: B16F10 tumor cells in C57B1 mice.
In the next assay the test system is tumor invasion. Put plainly: In vitro model of tumor invasion (Boyden chamber, reconstituted basement membrane). Type of assay: cell-based. To be noted: read-out: % Invasion-Inhibition by 50 μM drug. The procedure: The compound was also evaluated in an in vivo experimental model of metastasis using B16F10 tumor cells in C57B1 mice. […] The assay was carried out in a Boyden chamber with a reconstituted basement membrane (Matrigal).

The target of a further assay is T4, human MMP-8 (Homo sapiens, UniProt P22894).
T4 construct: purchased R&D Systems, Minneapolis
In words: Determination of MMP inhibitory potency, MMP-8. Type of assay: biochemical. The protocol:
as §1

In assay [2] the target is T1, MMP-2. In words: Time dependent inhibition of MMP-2 (period of inhibition). It counts as biochemical.
The target of another assay is T5, TACE (Homo sapiens, UniProt P78536).
T5 construct: purchased R&D Systems, Minneapolis
Put plainly: Determination of inhibitory potency, TACE. It counts as biochemical. The protocol:
as §1

The next assay has as its target T6, human MMP-9 (Homo sapiens, UniProt P14780).
T6 construct: purchased R&D Systems, Minneapolis
Put plainly: Determination of MMP inhibitory potency, MMP-9. It counts as biochemical. The procedure: as §1

The next assay has as its target T7, human MMP-12 (Homo sapiens, UniProt P39900).
T7 construct: purchased R&D Systems, Minneapolis
In words: Determination of MMP inhibitory potency, MMP-12. To be noted: read-out: IC50 (μM) on MMP-12. It counts as biochemical. The protocol: as §1

Molecules are shown by their SMILES.

T2 sequence (P08254 100-477): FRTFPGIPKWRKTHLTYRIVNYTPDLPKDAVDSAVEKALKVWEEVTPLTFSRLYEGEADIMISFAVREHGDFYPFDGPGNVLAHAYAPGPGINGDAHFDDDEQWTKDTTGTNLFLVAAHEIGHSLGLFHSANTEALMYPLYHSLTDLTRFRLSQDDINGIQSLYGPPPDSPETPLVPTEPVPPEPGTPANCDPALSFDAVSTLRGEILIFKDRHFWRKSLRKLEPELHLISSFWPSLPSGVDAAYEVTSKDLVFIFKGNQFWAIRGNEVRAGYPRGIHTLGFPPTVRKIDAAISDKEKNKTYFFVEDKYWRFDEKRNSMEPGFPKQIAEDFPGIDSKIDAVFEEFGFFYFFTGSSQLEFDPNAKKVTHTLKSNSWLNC
T5 sequence (P78536 215-824): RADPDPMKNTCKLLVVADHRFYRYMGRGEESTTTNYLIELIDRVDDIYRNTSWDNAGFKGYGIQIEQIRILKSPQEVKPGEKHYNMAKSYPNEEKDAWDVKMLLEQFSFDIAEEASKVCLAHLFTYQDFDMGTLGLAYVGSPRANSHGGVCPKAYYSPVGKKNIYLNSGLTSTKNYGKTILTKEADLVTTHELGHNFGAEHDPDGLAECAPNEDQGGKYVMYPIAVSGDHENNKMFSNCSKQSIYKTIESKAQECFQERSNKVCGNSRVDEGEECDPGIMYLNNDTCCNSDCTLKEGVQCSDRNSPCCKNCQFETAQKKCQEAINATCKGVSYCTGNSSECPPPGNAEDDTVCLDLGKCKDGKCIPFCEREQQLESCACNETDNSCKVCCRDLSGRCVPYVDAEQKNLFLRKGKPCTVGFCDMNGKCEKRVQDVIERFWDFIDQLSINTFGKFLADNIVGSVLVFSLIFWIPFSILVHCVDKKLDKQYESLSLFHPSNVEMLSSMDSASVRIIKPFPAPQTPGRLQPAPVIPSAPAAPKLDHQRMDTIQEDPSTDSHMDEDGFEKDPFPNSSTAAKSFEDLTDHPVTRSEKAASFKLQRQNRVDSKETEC
T6 sequence (P14780 94-707): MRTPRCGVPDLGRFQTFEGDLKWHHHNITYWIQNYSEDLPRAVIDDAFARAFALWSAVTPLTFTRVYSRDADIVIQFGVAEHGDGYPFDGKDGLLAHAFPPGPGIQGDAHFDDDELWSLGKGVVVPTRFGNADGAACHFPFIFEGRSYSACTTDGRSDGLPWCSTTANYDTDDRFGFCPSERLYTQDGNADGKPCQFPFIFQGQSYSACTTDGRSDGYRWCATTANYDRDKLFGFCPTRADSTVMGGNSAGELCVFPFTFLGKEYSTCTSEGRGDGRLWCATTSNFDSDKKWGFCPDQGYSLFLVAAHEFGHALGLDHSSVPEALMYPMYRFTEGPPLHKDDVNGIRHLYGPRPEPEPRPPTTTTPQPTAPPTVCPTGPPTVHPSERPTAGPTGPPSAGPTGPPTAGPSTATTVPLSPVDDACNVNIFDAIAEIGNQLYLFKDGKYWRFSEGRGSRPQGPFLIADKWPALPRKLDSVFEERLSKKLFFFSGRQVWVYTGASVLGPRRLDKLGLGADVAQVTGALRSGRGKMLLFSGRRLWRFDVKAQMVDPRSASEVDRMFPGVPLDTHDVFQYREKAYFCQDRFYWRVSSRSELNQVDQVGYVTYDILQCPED
T4 sequence (P22894 101-467): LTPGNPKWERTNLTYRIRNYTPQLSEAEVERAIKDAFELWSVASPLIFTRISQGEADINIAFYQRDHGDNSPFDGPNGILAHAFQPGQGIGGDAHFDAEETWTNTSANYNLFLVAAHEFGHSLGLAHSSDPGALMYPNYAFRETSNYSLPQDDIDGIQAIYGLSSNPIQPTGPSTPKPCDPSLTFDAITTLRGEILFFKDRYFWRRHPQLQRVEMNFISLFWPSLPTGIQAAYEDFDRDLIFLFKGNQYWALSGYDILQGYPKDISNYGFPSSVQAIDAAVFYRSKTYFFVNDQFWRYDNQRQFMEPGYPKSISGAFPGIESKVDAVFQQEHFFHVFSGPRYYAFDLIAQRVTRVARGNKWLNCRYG
T7 sequence (P39900 106-470): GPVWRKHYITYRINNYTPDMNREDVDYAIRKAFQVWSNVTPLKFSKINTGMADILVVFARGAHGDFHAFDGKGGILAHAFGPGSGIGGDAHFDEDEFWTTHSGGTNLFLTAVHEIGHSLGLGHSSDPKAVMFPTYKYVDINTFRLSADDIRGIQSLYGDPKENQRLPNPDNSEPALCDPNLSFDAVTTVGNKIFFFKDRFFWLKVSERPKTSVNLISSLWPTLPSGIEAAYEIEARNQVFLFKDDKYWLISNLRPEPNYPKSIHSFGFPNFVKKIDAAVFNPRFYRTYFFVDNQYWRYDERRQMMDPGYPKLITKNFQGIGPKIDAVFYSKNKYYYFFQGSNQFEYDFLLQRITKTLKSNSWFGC
Method for B16F10 tumor cells: Experimental metastasis was studied in the murine melanoma model. In this model, B16F10 tumor cells (50 k) were injected into the tail vein of C57B1 6 week old female mice. After 21 days, the metastases formed on the lungs of the mice were counted after appropriate fixation. […] One group received the inhibitor intraperitoneally and the other group orally, dissolved in PBS. Mice were monitored for toxic symptoms at alternate days.

Usually IC50 stands for the concentration needed to halve the response being measured. The term inhibition denotes how much of the control response was suppressed. Regarding `O=C(NCCNS(=O)(=O)c1ccc(Oc2ccccc2)cc1)P(=O)(O)O` [Compound 1, 1-[4-phenoxybenzenesulfonamido]-2-[phosphonoformamido]ethane], the IC50 was 15 µM on MMP-2 [1]; over 100 µM at human MMP-3 (read-out: IC50 (μM) on MMP-3); 55 µM at human MMP-13; over 100 µM at human MMP-8 (read-out: IC50 (μM) on MMP-8); 6 µM on TACE (read-out: IC50 (μM) on TACE); over 100 µM on human MMP-9 (read-out: IC50 (μM) on MMP-9). Besides, at human MMP-12, the IC50 was 60 µM. In addition, at human MMP-3, the “activity against MMP-3” value is given as “reduced or no activity”. For the same molecule, the “Duration of inhibitory effect” value with MMP and/or ADAM enzyme is over 180 min. Further, the “inhibition in metastasis formation (number of metastatic foci in the lung)” value in the assay on B16F10 tumor cells is listed as over 80%. The inhibition at 50 µM with tumor invasion was 70%. For the same molecule, at human MMP-8, the “activity against MMP-8” value was “reduced or no activity”. For the same molecule, the “period as active inhibitor (time dependent inhibition, FIG. 1)” value on MMP-2 [2] is on record as “at least 3 hours”. For the same molecule, the “activity against TACE” value on TACE is “moderate activity”. Also, the “activity against MMP-9” value on human MMP-9 is listed as “reduced or no activity”.
